# Results as given in EP1401829B1, “NOVEL HETEROCYCLIC ANTIBACTERIAL COMPOUNDS” (Microbiotix, Inc., priority 2001, dated 2002).
# Where two headings read alike, the source gives them in different places.
# Assays:
# [1] = tested on: E. fecium; test: Minimal Inhibitory Concentration (MIC) determination, 96 well plates; format: cell-based, Enterococcus fecium; settings: Enterococcus; HBI medium, 16 to 18 hours at 37°C; read-out: MIC (µg/ml) E. fecium
# Method: (§1) The following methods were used to characterize representative compounds. Minimal Inhibitory Concentration (MIC) determinations. MIC values were determined in 96 well plates, with bacterial growth monitored at OD 600 nm in 200µl following an initial bacterial seeding at approximately 1x10^5 colony forming units (CFU)/ml. Each drug is evaluated at five concentrations, with five data points at each dilution. MIC values (µg/ml) were determined against actively growing cultures in Heart-Brain Infusion (HBI) medium. Cell growth in cultures supplemented with a test compound was calculated as a percent of control at OD 600 nm after 16 to 18 hours at 37°C. […] Polymerase IIIC (Pol IIIC) assay. DNA polymerase activity (or inhibition thereof) was measured in a 96-well plate format. B. subtilis Pol IIIC was isolated as described by Hammond and Brown (Protein Expr. Purif., 3: 65-70 (1992)). Each 25 µl assay contained 30 mM Tris, pH 7.5, 10 mM magnesium acetate, 4 mM dithiothreitol, 20% glycerol, with 25 µM dATP, dCTP, dGTP and 10 µM dTTP (^3H-labelled at 1.44 Ci/mmole) and 0.4 mg/ml activated calf thymus DNA as substrates, as described previously (see Barnes et al, op. cit). Assays were initiated by the addition of 0.025 to 0.06 units of enzyme 1 unit is the amount required to incorporate 250 pmoles of [^3H] dTMP in a standard assay), incubated for 10 minutes at 30°C and terminated by the addition of 200 µl of cold 10% trichloroacetic acid (TCA),10 mM sodium pyrophosphate. Precipitated labeled DNA was collected on glass fiber filter plates, washed, dried, and counted in a liquid scintillation counter. Determination of Ki values. DNA polymerase activity was measured in a 96-well plate format in the absence of dGTP or dATP, depending on the structure of the test compound. Each 25 µl assay contained 30 mM Tris, pH 7.5, 10 mM magnesium acetate, 4 mM dithiothreitol, 20% glycerol, with 25 µM dATP, dCTP, and 10 µM dTTP (^3H-labelled at 1.44 Ci/mmole) and 0.4 mg/ml activated calf thymus DNA as substrates, as described previously. […] Assays were initiated by the addition of 0.025 to 0.06 units of enzyme (1 unit is the amount required to incorporate 250 pmoles of [^3H] dTMP in a standard assay), incubated for 10 minutes at 30 °C and terminated by the addition of 200 µl of cold 10% trichloroacetic acid, 10 mM sodium pyrophosphate. Precipitated labeled DNA was collected on glass fiber filter plates, washed, dried, and counted in a liquid scintillation counter. Ki is the concentration of test compound that reduces the control polymerase IIIC activity by 50 percent.
# (§2) MIC values were determined for the Gram positive bacteria Bacillus subtilis, Staphylococcus aureus (two strains), Enterococcus fecalis, Enterococcus fecium, and for the Gram negative bacterium Escherichia coli.
# [2] = tested on: S.aureus (Smith); test: as above; format: cell-based, Staphylococcus aureus; settings: Staphylococcus aureus; HBI medium, 16 to 18 hours at 37°C; read-out: MIC (µg/ml) S.aureus (Smith)
# Method: as §1, §2
# [3] = tested on: S. aureus; test: as above; format: cell-based, Staphylococcus aureus; settings: Staphylococcus aureus; HBI medium, 16 to 18 hours at 37°C; read-out: MIC (µg/ml) S. aureus
# Method: (§3) The following methods were used to characterize representative compounds. Minimal Inhibitory Concentration (MIC) determinations. MIC values were determined in 96 well plates, with bacterial growth monitored at OD 600 nm in 200µl following an initial bacterial seeding at approximately 1x10^5 colony forming units (CFU)/ml. Each drug is evaluated at five concentrations, with five data points at each dilution. MIC values (µg/ml) were determined against actively growing cultures in Heart-Brain Infusion (HBI) medium. Cell growth in cultures supplemented with a test compound was calculated as a percent of control at OD 600 nm after 16 to 18 hours at 37°C. This plate format conserves test compound and provides precise, quantitative data with low standard deviation determinations. Polymerase IIIC (Pol IIIC) assay. DNA polymerase activity (or inhibition thereof) was measured in a 96-well plate format. B. subtilis Pol IIIC was isolated as described by Hammond and Brown (Protein Expr. Purif., 3: 65-70 (1992)). Each 25 µl assay contained 30 mM Tris, pH 7.5, 10 mM magnesium acetate, 4 mM dithiothreitol, 20% glycerol, with 25 µM dATP, dCTP, dGTP and 10 µM dTTP (^3H-labelled at 1.44 Ci/mmole) and 0.4 mg/ml activated calf thymus DNA as substrates, as described previously (see Barnes et al, op. cit). Assays were initiated by the addition of 0.025 to 0.06 units of enzyme 1 unit is the amount required to incorporate 250 pmoles of [^3H] dTMP in a standard assay), incubated for 10 minutes at 30°C and terminated by the addition of 200 µl of cold 10% trichloroacetic acid (TCA),10 mM sodium pyrophosphate. Precipitated labeled DNA was collected on glass fiber filter plates, washed, dried, and counted in a liquid scintillation counter. Determination of Ki values. DNA polymerase activity was measured in a 96-well plate format in the absence of dGTP or dATP, depending on the structure of the test compound. Each 25 µl assay contained 30 mM Tris, pH 7.5, 10 mM magnesium acetate, 4 mM dithiothreitol, 20% glycerol, with 25 µM dATP, dCTP, and 10 µM dTTP (^3H-labelled at 1.44 Ci/mmole) and 0.4 mg/ml activated calf thymus DNA as substrates, as described previously. To each well were added 2 µl of compound solution to give final concentrations ranging from 20 - 0.027 µg/ml in the assay. Assays were initiated by the addition of 0.025 to 0.06 units of enzyme (1 unit is the amount required to incorporate 250 pmoles of [^3H] dTMP in a standard assay), incubated for 10 minutes at 30 °C and terminated by the addition of 200 µl of cold 10% trichloroacetic acid, 10 mM sodium pyrophosphate. Precipitated labeled DNA was collected on glass fiber filter plates, washed, dried, and counted in a liquid scintillation counter. Ki is the concentration of test compound that reduces the control polymerase IIIC activity by 50 percent.
# as §2
# [4] = tested on: E. coli; test: as above; format: cell-based, Escherichia coli; settings: Escherichia coli, read-out: MIC (µg/ml) E. coli
# Method: as §3, §2
# [5] = target: T1, B. subtilis Pol IIIC (Bacillus subtilis, UniProt P13267); test: Polymerase IIIC (Pol IIIC) assay, determination of Ki values; format: biochemical; settings: assay in absence of dGTP or dATP, Ki is the concentration that reduces control polymerase IIIC activity by 50 percent; for Ki: Ki (µM) Pol IIIC
# T1 construct: made in house
# T1 sequence (P13267 whole entry): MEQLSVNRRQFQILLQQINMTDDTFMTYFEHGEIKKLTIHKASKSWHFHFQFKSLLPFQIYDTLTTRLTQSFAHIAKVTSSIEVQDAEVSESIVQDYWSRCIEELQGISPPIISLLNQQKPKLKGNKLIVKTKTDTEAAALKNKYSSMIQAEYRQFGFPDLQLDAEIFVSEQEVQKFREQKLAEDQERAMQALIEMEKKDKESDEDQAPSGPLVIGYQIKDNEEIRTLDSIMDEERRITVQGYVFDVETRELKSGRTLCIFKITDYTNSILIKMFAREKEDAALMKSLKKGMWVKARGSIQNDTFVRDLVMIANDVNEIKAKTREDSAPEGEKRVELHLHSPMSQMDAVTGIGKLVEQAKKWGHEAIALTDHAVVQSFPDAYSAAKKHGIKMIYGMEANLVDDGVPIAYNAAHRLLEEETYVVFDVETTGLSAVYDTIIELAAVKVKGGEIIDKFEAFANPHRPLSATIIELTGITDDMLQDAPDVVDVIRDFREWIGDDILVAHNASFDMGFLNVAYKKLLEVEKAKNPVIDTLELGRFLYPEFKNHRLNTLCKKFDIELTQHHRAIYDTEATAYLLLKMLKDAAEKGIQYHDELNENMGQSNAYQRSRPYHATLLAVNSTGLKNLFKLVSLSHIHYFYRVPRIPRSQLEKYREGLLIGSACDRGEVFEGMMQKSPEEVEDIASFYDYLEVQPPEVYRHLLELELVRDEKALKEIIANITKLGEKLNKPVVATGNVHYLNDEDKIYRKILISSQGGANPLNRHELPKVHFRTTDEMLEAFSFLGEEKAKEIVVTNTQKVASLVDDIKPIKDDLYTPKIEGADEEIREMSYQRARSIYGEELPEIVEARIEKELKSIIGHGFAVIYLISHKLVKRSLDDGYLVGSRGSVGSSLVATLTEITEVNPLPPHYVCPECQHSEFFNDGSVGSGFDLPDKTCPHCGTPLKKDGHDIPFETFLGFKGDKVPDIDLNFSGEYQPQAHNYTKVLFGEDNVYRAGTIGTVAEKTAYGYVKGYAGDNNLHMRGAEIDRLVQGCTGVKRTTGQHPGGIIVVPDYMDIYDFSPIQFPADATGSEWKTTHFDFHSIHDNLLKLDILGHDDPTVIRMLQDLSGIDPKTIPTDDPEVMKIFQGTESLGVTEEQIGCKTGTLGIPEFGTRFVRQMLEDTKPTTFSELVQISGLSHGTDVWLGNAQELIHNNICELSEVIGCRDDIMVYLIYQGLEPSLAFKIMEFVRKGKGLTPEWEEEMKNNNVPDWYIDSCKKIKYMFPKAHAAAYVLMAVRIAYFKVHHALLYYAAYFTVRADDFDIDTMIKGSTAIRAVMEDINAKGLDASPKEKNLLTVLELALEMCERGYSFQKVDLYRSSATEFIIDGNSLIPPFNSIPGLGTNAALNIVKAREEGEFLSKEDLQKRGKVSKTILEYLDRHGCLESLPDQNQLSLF
# Method: as §1
# [6] = tested on: B. subtilis; test: Minimal Inhibitory Concentration (MIC) determination, 96 well plates; format: cell-based, Bacillus subtilis; settings: Bacillus subtilis; HBI medium, 16 to 18 hours at 37°C; read-out: MIC (µg/ml) B. subtilis
# Method: as §1, §2
# [7] = tested on: E. fecalis; test: as above; format: cell-based, Enterococcus fecalis; settings: Enterococcus; HBI medium, 16 to 18 hours at 37°C; read-out: MIC (µg/ml) E. fecalis
# Method: as §1, §2
# [8] = HBI medium, 16 to 18 hours at 37°C
SMILES,MIC [1] [µg/mL],MIC [2] [µg/mL],MIC [3] [µg/mL],"MIC [4, 8] [µg/mL]",Ki [5] [µM],MIC [6] [µg/mL],MIC [7] [µg/mL],MIC [4] [µg/mL],Ki (µM) Pol IIIC [5]
"Cc1ccc(Nc2cc(=O)n(CCCCN3CCN(c4c(F)cc5c(=O)c(C(=O)O)cn(C6CC6)c5c4F)C[C@@H]3C)c(=O)[nH]2)cc1C [Compound 99, (S)-3-{4-[1-(1-cyclopropyl-3-carboxy-4-oxo-6,8-difluoro-7-quinolyl)-3-methyl-4-piperazinyl]butyl}-6-(3,4-dimethylanilino)uracil]",1.25,0.156,0.313,0.625,0.03,0.156,0.625,–,–
"CCc1cc(Nc2cc(=O)n(CCCCCN3CCOC4CN(c5cc6c(cc5F)c(=O)c(C(=O)O)cn6C5CC5)CC43)c(=O)[nH]2)ccc1C (stereo not shown) [Compound 84, 3-{5-[1-(1-cyclopropyl-3-carboxy-4-oxo-6-fluoro-7-quinolyl)-3-(5-oxa-1,3-diazabicyclononyl)]pentyl}-6-(3-ethyl-4-methylanilino)uracil]",25,0.625,1.25,> 80,0.033,0.313,2.5,–,–
"CCc1cc(Nc2cc(=O)n(CCCCCN3CCN(c4cc5c(cc4F)c(=O)c(C(=O)O)cn5C4CC4)CC3)c(=O)[nH]2)ccc1C [Compound 15, 3-{5-[1-(1-cyclopropyl-3-carboxy-4-oxo-6-fluoro-7-quinolyl)-4-piperazinyl]pentyl}-6-(3-ethyl-4-methylanilino)uracil]",1.25,0.313,0.625,5,0.03,0.156,0.625,–,–
"CCn1cc(C(=O)O)c(=O)c2cc(F)c(N3CCNCC3)cc21 [nflxn, norfloxacin, reference compound]",20,0.156,0.625,–,–,0.625,2.5,0.078,inactive
"CCc1cc(Nc2ccc(CCCCN3CCN(c4cc5c(cc4F)c(=O)c(C(=O)O)cn5CC)CC3)c(=O)[nH]2)ccc1C [Compound 78, 3-{4-[1-(1-ethyl-3-carboxy-4-oxo-6-fluoro-7-quinolyl)-4-piperazinyl]butyl}-6-(3-ethyl-4-methylanilino)-2-pyridone]",5,2.5,1.25,> 80,2.4,0.625,5,–,–
"CCc1cc(Nc2cc(=O)n(CCOCCN3CCN(c4cc5c(cc4F)c(=O)c(C(=O)O)cn5C4CC4)CC3)c(=O)[nH]2)ccc1C [Compound 11, 3-{2-[1-(1-cyclopropyl-3-carboxy-4-oxo-6-fluoro-7-quinolyl)-4-piperazinyl]ethoxyethyl}-6-(3-ethyl-4-methylanilino)uracil]",5,2.5,5,> 80,0.03,1.25,10,–,–
"Cc1ccc(Nc2cc(=O)n(CCCCN3CCN(c4cc5c(cc4F)c(=O)c(C(=O)O)cn5C4CC4)C[C@H]3C)c(=O)[nH]2)cc1C [Compound 96, (R)-3-{4-[1-(1-cyclopropyl-3-carboxy-4-oxo-6-fluoro-7-quinolyl)-3-methyl-4-piperazinyl]butyl}-6-(3,4-dimethylanilino)uracil]",0.625,0.313,0.625,5,0.019,0.156,0.625,–,–
"Cc1ccc(Nc2cc(=O)n(CCCCN3CCN(c4c(F)cc5c(=O)c(C(=O)O)cn(C6CC6)c5c4F)CC3C)c(=O)[nH]2)cc1C (stereo not shown) [Compound 94, 3-{4-[1-(1-cyclopropyl-3-carboxy-4-oxo-6,8-difluoro-7-quinolyl)-3-methyl-4-piperazinyl]butyl}-6-(3,4-dimethylanilino)uracil]",2.5,0.313,0.625,2.5,0.026,0.156,1.25,–,–
"O=C(O)c1cn(C2CC2)c2cc(N3CCN(CCCCn4c(=O)cc(Nc5ccc6c(c5)CCC6)[nH]c4=O)CC3)c(F)cc2c1=O [Compound 67, 3-{4-[1-(1-cyclopropyl-3-carboxy-4-oxo-6-fluoro-7-quinolyl)-4-piperazinyl]butyl}-6-(5-indanylamino)uracil]",2.5,0.313,0.625,10,0.034,0.23,1.25,–,–
"CCc1cc(Nc2cc(=O)n(CCCCCCCN3CCN(c4cc5c(cc4F)c(=O)c(C(=O)O)cn5C4CC4)CC3)c(=O)[nH]2)ccc1C [Compound 8, 3-{7-[1-(1-cyclopropyl-3-carboxy-4-oxo-6-fluoro-7-quinolyl)-4-piperazinyl]heptyl}-6-(3-ethyl-4-methylanilino)uracil]",> 80,0.625,1.25,40,0.013,0.313,10,–,–
